Source: patent US11147272B2, “Pyridone compounds and agricultural and horticultural fungicides comprising the same as active ingredients” (MITSUI CHEMICALS AGRO, INC., priority 2017, dated 2021)

Tests used:
Magnaporthe grisea = assay: whole plant or invertebrate; type: in vivo; conditions: Blast on rice; class of control value
Alternaia brassicicola = assay: Test Example C: Alternaria sooty spot on cabbage; type: in vivo; conditions: Alternaria sooty spot on cabbage; class of control value
Excerpt: Seeds of a test plant (cabbage variety: Shikidori) were planted and cultivated until the cotyledons extended.
<Control Value> Control value=100{1−(n/3)}

Puccinia recondita = assay: Test Example E: Brown rust on wheat; type: in vivo; conditions: Brown rust on wheat; class of control value
Phytophthora infestans = assay: whole plant or invertebrate; type: in vivo; conditions: Late blight on tomato; class of control value
Botrytis cinerea = assay: Test Example B: Gray mold on tomato; conditions: Gray mold on tomato; class of control value
Plasmopara viticola = assay: Test Example G: Downy mildew on vine; conditions: Downy mildew on vine (Neomuscat); 250 ppm spray, 2.5 ml/pot; assessed 7 to 10 days after inoculation
[1] = system: Colletotrichum orbiculare; assay: Test Example H: Anthracnose on cucumber; conditions: Anthracnose on cucumber (Sagami Hanjiro); 250 ppm spray, 2.5 ml/pot; assessed 6 to 10 days after inoculation
[2] = system: Blumeria graminis f. sp. hordei; assay: Test Example D: Powdery mildew on barley; conditions: Powdery mildew on barley; class of control value

## CCn1c(-c2c(F)cc(OC)cc2F)c(CN(C)C)cc(Cl)c1=O [compound 92]
Magnaporthe grisea
  Test A control value class: H (more than 50% control value)
Alternaia brassicicola
  Test C control value class: H (more than 50% control value)
Puccinia recondita
  Test E control value class: H (more than 50% control value)
Phytophthora infestans
  Test F control value class: L (50% or less control value)
Botrytis cinerea
  Test B control value class: L (50% or less control value)
Plasmopara viticola
  Test G control value class: L (50% or less control value)
[1]
  Test H control value class: H (more than 50% control value)
[2]
  Test D control value class: L (50% or less control value)

## CCn1c(-c2c(F)cc(OC)cc2F)c(CN(C)OC)cc(Cl)c1=O [compound 94]
Magnaporthe grisea
  Test A control value class: H (more than 50% control value)
Alternaia brassicicola
  Test C control value class: H (more than 50% control value)
Puccinia recondita
  Test E control value class: H (more than 50% control value)
Phytophthora infestans
  Test F control value class: H (more than 50% control value)
Botrytis cinerea
  Test B control value class: H (more than 50% control value)
Plasmopara viticola
  Test G control value class: H (more than 50% control value)
[1]
  Test H control value class: H (more than 50% control value)
[2]
  Test D control value class: H (more than 50% control value)

## CCn1c(-c2c(F)cccc2OC)c(CC(C)C)ccc1=O [compound 95]
Magnaporthe grisea
  Test A control value class: L (50% or less control value)
Alternaia brassicicola
  Test C control value class: L (50% or less control value)
Puccinia recondita
  Test E control value class: H (more than 50% control value)
Phytophthora infestans
  Test F control value class: H (more than 50% control value)
Botrytis cinerea
  Test B control value class: H (more than 50% control value)
Plasmopara viticola
  Test G control value class: L (50% or less control value)
[1]
  Test H control value class: L (50% or less control value)
[2]
  Test D control value class: H (more than 50% control value)

## CCn1c(-c2c(F)cccc2OC)c(CC(C)C)cc(Br)c1=O [compound 96]
Magnaporthe grisea
  Test A control value class: L (50% or less control value)
Alternaia brassicicola
  Test C control value class: H (more than 50% control value)
Puccinia recondita
  Test E control value class: H (more than 50% control value)
Phytophthora infestans
  Test F control value class: L (50% or less control value)
Botrytis cinerea
  Test B control value class: H (more than 50% control value)
Plasmopara viticola
  Test G control value class: L (50% or less control value)
[1]
  Test H control value class: H (more than 50% control value)
[2]
  Test D control value class: H (more than 50% control value)

## CCn1c(-c2c(F)cccc2OC)c(CC(C)C)cc(Cl)c1=O [compound 97]
Magnaporthe grisea
  Test A control value class: H (more than 50% control value)
Alternaia brassicicola
  Test C control value class: H (more than 50% control value)
Puccinia recondita
  Test E control value class: H (more than 50% control value)
Phytophthora infestans
  Test F control value class: L (50% or less control value)
Botrytis cinerea
  Test B control value class: H (more than 50% control value)
Plasmopara viticola
  Test G control value class: L (50% or less control value)
[1]
  Test H control value class: H (more than 50% control value)
[2]
  Test D control value class: H (more than 50% control value)

## CCn1c(-c2ccc(F)cc2Cl)c(CC(C)C)cc(Br)c1=O [compound 100]
Magnaporthe grisea
  Test A control value class: H (more than 50% control value)
Alternaia brassicicola
  Test C control value class: H (more than 50% control value)
Puccinia recondita
  Test E control value class: H (more than 50% control value)
Phytophthora infestans
  Test F control value class: L (50% or less control value)
Botrytis cinerea
  Test B control value class: H (more than 50% control value)
Plasmopara viticola
  Test G control value class: H (more than 50% control value)
[1]
  Test H control value class: H (more than 50% control value)
[2]
  Test D control value class: H (more than 50% control value)

## CCn1c(-c2c(O)cccc2F)c(CC(C)C)cc(Cl)c1=O [compound 101]
Magnaporthe grisea
  Test A control value class: L (50% or less control value)
Alternaia brassicicola
  Test C control value class: L (50% or less control value)
Puccinia recondita
  Test E control value class: H (more than 50% control value)
Phytophthora infestans
  Test F control value class: H (more than 50% control value)
Botrytis cinerea
  Test B control value class: H (more than 50% control value)
Plasmopara viticola
  Test G control value class: H (more than 50% control value)
[1]
  Test H control value class: L (50% or less control value)
[2]
  Test D control value class: L (50% or less control value)

## C#CCOc1cccc(F)c1-c1c(CC(C)C)cc(Cl)c(=O)n1CC [compound 102]
Magnaporthe grisea
  Test A control value class: H (more than 50% control value)
Alternaia brassicicola
  Test C control value class: H (more than 50% control value)
Puccinia recondita
  Test E control value class: H (more than 50% control value)
Phytophthora infestans
  Test F control value class: L (50% or less control value)
Botrytis cinerea
  Test B control value class: H (more than 50% control value)
Plasmopara viticola
  Test G control value class: H (more than 50% control value)
[1]
  Test H control value class: H (more than 50% control value)
[2]
  Test D control value class: H (more than 50% control value)

## CCn1c(-c2c(F)cccc2OCOC)c(CC(C)C)cc(Cl)c1=O [compound 103]
Magnaporthe grisea
  Test A control value class: H (more than 50% control value)
Alternaia brassicicola
  Test C control value class: H (more than 50% control value)
Puccinia recondita
  Test E control value class: H (more than 50% control value)
Phytophthora infestans
  Test F control value class: L (50% or less control value)
Botrytis cinerea
  Test B control value class: H (more than 50% control value)
Plasmopara viticola
  Test G control value class: H (more than 50% control value)
[1]
  Test H control value class: H (more than 50% control value)
[2]
  Test D control value class: H (more than 50% control value)

## C=CCOc1cccc(F)c1-c1c(CC(C)C)cc(Cl)c(=O)n1CC [compound 104]
Magnaporthe grisea
  Test A control value class: H (more than 50% control value)
Alternaia brassicicola
  Test C control value class: L (50% or less control value)
Puccinia recondita
  Test E control value class: L (50% or less control value)
Phytophthora infestans
  Test F control value class: L (50% or less control value)
Botrytis cinerea
  Test B control value class: H (more than 50% control value)
Plasmopara viticola
  Test G control value class: H (more than 50% control value)
[1]
  Test H control value class: H (more than 50% control value)
[2]
  Test D control value class: H (more than 50% control value)

## CCn1c(-c2c(F)cccc2OCSC)c(CC(C)C)cc(Cl)c1=O [compound 105]
Magnaporthe grisea
  Test A control value class: H (more than 50% control value)
Alternaia brassicicola
  Test C control value class: H (more than 50% control value)
Puccinia recondita
  Test E control value class: L (50% or less control value)
Phytophthora infestans
  Test F control value class: L (50% or less control value)
Botrytis cinerea
  Test B control value class: H (more than 50% control value)
Plasmopara viticola
  Test G control value class: H (more than 50% control value)
[1]
  Test H control value class: H (more than 50% control value)
[2]
  Test D control value class: L (50% or less control value)

## CCn1c(-c2c(F)cc(F)cc2F)c(C(C)(C)OC)cc(Cl)c1=O [compound 109]
Magnaporthe grisea
  Test A control value class: H (more than 50% control value)
Alternaia brassicicola
  Test C control value class: H (more than 50% control value)
Puccinia recondita
  Test E control value class: H (more than 50% control value)
Phytophthora infestans
  Test F control value class: L (50% or less control value)
Botrytis cinerea
  Test B control value class: H (more than 50% control value)
Plasmopara viticola
  Test G control value class: L (50% or less control value)
[1]
  Test H control value class: H (more than 50% control value)
[2]
  Test D control value class: H (more than 50% control value)

## CCn1c(-c2ccc(OC)cc2F)c(CC(C)C)ccc1=O [compound 111]
Magnaporthe grisea
  Test A control value class: H (more than 50% control value)
Alternaia brassicicola
  Test C control value class: H (more than 50% control value)
Puccinia recondita
  Test E control value class: H (more than 50% control value)
Phytophthora infestans
  Test F control value class: L (50% or less control value)
Botrytis cinerea
  Test B control value class: H (more than 50% control value)
Plasmopara viticola
  Test G control value class: H (more than 50% control value)
[1]
  Test H control value class: H (more than 50% control value)
[2]
  Test D control value class: H (more than 50% control value)

## CCn1c(-c2c(F)cc(F)cc2F)c(CNOC)cc(Cl)c1=O [compound 112]
Magnaporthe grisea
  Test A control value class: L (50% or less control value)
Alternaia brassicicola
  Test C control value class: H (more than 50% control value)
Puccinia recondita
  Test E control value class: H (more than 50% control value)
Phytophthora infestans
  Test F control value class: L (50% or less control value)
Botrytis cinerea
  Test B control value class: H (more than 50% control value)
Plasmopara viticola
  Test G control value class: L (50% or less control value)
[1]
  Test H control value class: H (more than 50% control value)
[2]
  Test D control value class: H (more than 50% control value)

## CCn1c(-c2c(F)cc(OC)cc2F)c(C(C)(C)OC)cc(Cl)c1=O [compound 113]
Magnaporthe grisea
  Test A control value class: H (more than 50% control value)
Alternaia brassicicola
  Test C control value class: H (more than 50% control value)
Puccinia recondita
  Test E control value class: H (more than 50% control value)
Phytophthora infestans
  Test F control value class: L (50% or less control value)
Botrytis cinerea
  Test B control value class: H (more than 50% control value)
Plasmopara viticola
  Test G control value class: L (50% or less control value)
[1]
  Test H control value class: H (more than 50% control value)
[2]
  Test D control value class: L (50% or less control value)

## CCn1c(-c2c(F)cc(OC)cc2F)c(CNOC)cc(Cl)c1=O [compound 114]
Magnaporthe grisea
  Test A control value class: L (50% or less control value)
Alternaia brassicicola
  Test C control value class: H (more than 50% control value)
Puccinia recondita
  Test E control value class: H (more than 50% control value)
Phytophthora infestans
  Test F control value class: L (50% or less control value)
Botrytis cinerea
  Test B control value class: H (more than 50% control value)
Plasmopara viticola
  Test G control value class: L (50% or less control value)
[1]
  Test H control value class: H (more than 50% control value)
[2]
  Test D control value class: H (more than 50% control value)
